ChEMBL document CHEMBL1150976, “The selectivity of protein kinase inhibitors: a further update” (Biochem J, 2007)

What was measured:
[1] = organism: Homo sapiens; assay: Percentage PHK activity remaining in the presence of 25uM inhibitor
[2] = molecular target: MAP kinase-interacting serine/threonine-protein kinase 1 (Homo sapiens) (UniProt Q9BUB5); assay: Percentage MNK1 activity remaining in the presence of 25uM inhibitor
[3] = molecular target: MAP/microtubule affinity-regulating kinase 3 (Homo sapiens) (UniProt P27448); assay: Percentage MARK3 activity remaining in the presence of 25uM inhibitor
Chain of MAP/microtubule affinity-regulating kinase 3 (Homo sapiens) (P27448 whole entry, looked up): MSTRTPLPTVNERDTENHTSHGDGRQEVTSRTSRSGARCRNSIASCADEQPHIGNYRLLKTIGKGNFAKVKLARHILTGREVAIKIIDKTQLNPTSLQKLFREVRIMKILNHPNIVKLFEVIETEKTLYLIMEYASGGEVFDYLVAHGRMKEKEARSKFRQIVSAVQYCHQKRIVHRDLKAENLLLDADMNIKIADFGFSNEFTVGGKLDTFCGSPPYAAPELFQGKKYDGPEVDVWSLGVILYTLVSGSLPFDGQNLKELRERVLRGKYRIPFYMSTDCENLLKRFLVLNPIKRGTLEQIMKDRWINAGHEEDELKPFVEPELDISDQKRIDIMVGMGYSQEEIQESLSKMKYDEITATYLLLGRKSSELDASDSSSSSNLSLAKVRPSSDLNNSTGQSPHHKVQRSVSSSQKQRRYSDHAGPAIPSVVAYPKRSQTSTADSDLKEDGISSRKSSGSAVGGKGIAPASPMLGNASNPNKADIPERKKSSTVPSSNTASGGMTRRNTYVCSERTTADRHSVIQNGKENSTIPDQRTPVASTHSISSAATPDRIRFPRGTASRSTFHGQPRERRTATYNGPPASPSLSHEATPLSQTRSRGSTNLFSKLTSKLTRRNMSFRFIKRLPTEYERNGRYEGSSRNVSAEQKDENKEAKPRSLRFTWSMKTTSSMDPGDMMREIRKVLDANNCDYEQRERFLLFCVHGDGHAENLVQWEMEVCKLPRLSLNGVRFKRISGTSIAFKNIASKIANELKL

[4] = molecular target: T1, Mitogen-activated protein kinase 13 (Homo sapiens) (UniProt O15264); assay: Percentage p38delta activity remaining in the presence of 25uM inhibitor
T1 sequence (whole entry): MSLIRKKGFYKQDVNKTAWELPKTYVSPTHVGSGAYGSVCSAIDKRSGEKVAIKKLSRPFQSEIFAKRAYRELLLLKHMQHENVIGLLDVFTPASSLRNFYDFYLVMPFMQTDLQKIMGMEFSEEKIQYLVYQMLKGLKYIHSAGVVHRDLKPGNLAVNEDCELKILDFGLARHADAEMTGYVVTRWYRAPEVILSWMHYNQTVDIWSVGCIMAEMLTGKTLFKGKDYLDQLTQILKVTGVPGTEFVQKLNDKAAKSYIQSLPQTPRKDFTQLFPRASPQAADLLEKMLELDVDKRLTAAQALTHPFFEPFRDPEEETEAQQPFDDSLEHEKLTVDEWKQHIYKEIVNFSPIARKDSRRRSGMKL

[5] = molecular target: Ribosomal protein S6 kinase alpha-3 (Homo sapiens) (UniProt P51812); assay: Percentage RSK2 activity remaining in the presence of 25uM inhibitor
Chain of Ribosomal protein S6 kinase alpha-3 (Homo sapiens) (P51812 whole entry): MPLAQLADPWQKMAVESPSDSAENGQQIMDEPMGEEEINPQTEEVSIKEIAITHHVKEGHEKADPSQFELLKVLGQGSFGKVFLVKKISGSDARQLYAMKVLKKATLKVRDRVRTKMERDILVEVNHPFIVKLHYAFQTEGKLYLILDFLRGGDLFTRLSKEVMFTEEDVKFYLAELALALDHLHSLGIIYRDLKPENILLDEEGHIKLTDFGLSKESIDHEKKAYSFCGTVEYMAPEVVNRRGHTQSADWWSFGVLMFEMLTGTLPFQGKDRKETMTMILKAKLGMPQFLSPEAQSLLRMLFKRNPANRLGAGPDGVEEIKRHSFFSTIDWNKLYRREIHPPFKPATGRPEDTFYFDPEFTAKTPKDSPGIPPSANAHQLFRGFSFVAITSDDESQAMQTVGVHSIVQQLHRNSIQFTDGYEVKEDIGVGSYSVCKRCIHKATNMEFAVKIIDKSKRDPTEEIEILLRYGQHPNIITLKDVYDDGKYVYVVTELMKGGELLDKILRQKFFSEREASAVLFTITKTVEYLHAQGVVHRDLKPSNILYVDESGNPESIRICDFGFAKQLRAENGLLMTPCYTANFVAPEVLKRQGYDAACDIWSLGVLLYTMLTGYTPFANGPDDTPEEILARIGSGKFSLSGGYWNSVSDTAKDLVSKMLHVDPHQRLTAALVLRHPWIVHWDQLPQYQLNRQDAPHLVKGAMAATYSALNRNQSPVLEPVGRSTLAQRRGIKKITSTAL

[6] = molecular target: T2, Eukaryotic elongation factor 2 kinase (Homo sapiens) (UniProt O00418); assay: Percentage EF2K activity remaining in the presence of 25uM inhibitor
T2 sequence (whole entry): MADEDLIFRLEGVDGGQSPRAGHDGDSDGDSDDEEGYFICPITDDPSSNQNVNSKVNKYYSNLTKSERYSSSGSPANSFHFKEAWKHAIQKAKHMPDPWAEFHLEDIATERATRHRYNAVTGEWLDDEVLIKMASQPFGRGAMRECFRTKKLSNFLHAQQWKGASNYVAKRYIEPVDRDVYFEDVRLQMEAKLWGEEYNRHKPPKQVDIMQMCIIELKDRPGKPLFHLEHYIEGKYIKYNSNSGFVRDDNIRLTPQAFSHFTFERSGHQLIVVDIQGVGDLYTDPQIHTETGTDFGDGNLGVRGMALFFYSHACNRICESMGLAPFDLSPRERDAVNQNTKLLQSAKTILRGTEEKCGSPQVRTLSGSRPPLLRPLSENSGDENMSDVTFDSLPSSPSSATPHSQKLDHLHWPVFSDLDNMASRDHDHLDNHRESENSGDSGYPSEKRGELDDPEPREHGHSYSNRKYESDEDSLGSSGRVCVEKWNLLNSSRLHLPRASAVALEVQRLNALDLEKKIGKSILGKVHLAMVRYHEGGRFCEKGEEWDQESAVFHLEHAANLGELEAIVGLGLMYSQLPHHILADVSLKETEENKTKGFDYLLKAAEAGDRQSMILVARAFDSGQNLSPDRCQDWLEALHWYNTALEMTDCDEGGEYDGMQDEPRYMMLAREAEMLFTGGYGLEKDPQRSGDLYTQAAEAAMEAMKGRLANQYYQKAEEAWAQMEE

[7] = molecular target: MAP kinase-interacting serine/threonine-protein kinase 2 (Homo sapiens) (UniProt Q9HBH9); assay: Percentage MNK2 activity remaining in the presence of 25uM inhibitor
Chain of MAP kinase-interacting serine/threonine-protein kinase 2 (Homo sapiens) (Q9HBH9 whole entry, looked up): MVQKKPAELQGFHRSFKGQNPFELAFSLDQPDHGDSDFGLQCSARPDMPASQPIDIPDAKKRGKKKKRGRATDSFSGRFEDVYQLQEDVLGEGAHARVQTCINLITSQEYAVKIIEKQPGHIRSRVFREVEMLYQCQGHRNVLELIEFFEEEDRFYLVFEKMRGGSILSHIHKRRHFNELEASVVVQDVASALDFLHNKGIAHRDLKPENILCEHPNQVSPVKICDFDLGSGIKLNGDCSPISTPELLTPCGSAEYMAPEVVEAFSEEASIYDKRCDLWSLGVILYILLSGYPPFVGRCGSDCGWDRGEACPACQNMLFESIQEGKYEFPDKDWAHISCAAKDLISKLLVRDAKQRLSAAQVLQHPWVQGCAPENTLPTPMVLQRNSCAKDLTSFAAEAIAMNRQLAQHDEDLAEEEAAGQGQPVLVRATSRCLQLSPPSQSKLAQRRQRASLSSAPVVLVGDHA

[8] = molecular target: Rho-associated protein kinase 2 (Homo sapiens) (UniProt O75116); assay: Percentage ROCK2 activity remaining in the presence of 25uM inhibitor
Chain of Rho-associated protein kinase 2 (Homo sapiens) (O75116 whole entry, looked up): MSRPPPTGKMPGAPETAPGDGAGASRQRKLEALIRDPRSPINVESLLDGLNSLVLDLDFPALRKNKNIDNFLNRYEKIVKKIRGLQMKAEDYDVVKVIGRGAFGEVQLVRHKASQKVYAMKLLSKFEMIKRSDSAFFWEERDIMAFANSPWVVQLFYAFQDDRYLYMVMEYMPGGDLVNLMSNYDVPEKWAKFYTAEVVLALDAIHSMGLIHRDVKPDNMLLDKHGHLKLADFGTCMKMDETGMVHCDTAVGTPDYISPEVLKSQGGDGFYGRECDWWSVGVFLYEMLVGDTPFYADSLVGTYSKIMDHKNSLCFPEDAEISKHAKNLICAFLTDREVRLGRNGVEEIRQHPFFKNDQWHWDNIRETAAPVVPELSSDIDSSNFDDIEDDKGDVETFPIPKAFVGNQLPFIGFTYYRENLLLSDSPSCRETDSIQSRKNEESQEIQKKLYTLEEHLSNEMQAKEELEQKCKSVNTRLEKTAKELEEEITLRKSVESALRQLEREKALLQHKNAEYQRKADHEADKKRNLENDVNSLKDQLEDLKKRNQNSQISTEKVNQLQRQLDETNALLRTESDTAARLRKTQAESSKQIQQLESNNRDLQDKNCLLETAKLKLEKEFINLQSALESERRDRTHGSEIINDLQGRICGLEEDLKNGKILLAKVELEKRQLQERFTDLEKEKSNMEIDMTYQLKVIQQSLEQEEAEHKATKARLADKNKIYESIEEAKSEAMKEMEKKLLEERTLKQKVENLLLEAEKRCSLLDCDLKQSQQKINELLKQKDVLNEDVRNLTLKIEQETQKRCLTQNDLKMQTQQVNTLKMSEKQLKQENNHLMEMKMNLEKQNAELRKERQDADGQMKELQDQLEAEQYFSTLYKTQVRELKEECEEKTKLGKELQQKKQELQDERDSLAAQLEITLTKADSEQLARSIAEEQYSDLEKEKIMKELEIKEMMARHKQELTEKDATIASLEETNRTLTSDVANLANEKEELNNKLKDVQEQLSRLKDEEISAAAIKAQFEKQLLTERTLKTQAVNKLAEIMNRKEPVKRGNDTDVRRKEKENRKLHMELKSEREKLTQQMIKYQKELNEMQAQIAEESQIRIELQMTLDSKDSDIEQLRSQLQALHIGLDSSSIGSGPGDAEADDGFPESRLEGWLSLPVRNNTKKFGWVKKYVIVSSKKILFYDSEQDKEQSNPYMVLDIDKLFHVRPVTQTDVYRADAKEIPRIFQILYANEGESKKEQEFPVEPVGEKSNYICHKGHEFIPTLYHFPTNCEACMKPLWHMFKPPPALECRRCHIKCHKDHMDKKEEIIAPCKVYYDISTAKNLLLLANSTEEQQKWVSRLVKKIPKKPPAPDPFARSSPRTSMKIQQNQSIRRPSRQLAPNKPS

[9] = molecular target: Aurora kinase B (Homo sapiens, UniProt Q96GD4); assay: Percentage Aurora B activity remaining in the presence of 25uM inhibitor
[10] = molecular target: Cyclin-dependent kinase 2/cyclin A (Homo sapiens) (UniProt P24941+P20248+P78396); assay: Percentage CDK2-cyclinA activity remaining in the presence of 25uM inhibitor; assay type: protein-complex assay
[11] = molecular target: Serine/threonine-protein kinase PLK1 (Homo sapiens, UniProt P53350); assay: Percentage PLK1 activity remaining in the presence of 25uM inhibitor
Chain of Serine/threonine-protein kinase PLK1 (P53350 whole entry): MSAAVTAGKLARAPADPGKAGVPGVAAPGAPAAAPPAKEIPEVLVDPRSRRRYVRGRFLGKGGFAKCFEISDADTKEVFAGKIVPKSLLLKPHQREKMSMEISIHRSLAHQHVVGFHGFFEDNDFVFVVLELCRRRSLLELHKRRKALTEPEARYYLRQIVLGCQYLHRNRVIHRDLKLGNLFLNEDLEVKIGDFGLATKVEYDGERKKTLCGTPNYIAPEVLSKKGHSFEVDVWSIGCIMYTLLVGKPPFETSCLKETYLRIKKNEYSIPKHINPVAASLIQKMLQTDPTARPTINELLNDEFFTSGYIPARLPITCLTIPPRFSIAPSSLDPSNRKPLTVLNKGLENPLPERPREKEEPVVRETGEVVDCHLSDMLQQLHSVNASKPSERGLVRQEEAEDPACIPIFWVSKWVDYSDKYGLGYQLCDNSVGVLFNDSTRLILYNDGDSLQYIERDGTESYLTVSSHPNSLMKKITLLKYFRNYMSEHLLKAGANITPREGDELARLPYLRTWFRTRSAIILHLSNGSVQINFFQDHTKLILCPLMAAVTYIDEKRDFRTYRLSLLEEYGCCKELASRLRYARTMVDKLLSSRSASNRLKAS

[12] = molecular target: Casein kinase II (Homo sapiens) (UniProt P67870+P68400+P19784); assay: Percentage CK2 activity remaining in the presence of 25uM inhibitor; assay type: protein-complex assay
[13] = molecular target: MAP kinase-activated protein kinase 2 (Homo sapiens) (UniProt P49137); assay: Percentage MAPKAPK2 activity remaining in the presence of […]uM inhibitor; conditions: at 25 µM
Chain of MAP kinase-activated protein kinase 2 (Homo sapiens) (P49137 whole entry, looked up): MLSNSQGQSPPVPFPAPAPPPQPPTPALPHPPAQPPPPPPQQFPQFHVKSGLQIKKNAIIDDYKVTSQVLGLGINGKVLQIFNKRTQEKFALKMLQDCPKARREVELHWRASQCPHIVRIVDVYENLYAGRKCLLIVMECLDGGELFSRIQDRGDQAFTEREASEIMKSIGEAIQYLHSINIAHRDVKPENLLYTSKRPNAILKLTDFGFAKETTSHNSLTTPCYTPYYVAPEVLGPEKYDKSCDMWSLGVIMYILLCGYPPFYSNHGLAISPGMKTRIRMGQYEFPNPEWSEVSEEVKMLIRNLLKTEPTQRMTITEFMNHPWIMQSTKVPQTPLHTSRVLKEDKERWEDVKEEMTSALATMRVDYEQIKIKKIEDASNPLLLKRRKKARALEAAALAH

[14] = molecular target: SRSF protein kinase 1 (Homo sapiens) (UniProt Q96SB4); assay: Percentage SRPK1 activity remaining in the presence of 0.01uM inhibitor
[15] = molecular target: Mitogen-activated protein kinase 1 (Homo sapiens) (UniProt P28482); assay: Percentage ERK2 activity remaining in the presence of 0.01uM inhibitor
Chain of Mitogen-activated protein kinase 1 (Homo sapiens) (P28482 whole entry): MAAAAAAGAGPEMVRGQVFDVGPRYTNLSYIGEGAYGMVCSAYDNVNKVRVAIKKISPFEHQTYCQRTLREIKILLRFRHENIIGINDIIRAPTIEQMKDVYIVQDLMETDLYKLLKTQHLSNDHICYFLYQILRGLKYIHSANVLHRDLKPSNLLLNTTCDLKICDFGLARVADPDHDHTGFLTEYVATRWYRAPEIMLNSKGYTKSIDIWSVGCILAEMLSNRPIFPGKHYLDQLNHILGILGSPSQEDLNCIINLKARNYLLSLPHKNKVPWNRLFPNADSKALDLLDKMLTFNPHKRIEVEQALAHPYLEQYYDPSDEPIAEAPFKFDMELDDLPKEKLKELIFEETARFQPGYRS

[16] = molecular target: T3, 3-phosphoinositide-dependent protein kinase 1 (Homo sapiens) (UniProt O15530); assay: Percentage PDK1 activity remaining in the presence of 0.01uM inhibitor; conditions: filed as antagonist
T3 sequence (whole entry): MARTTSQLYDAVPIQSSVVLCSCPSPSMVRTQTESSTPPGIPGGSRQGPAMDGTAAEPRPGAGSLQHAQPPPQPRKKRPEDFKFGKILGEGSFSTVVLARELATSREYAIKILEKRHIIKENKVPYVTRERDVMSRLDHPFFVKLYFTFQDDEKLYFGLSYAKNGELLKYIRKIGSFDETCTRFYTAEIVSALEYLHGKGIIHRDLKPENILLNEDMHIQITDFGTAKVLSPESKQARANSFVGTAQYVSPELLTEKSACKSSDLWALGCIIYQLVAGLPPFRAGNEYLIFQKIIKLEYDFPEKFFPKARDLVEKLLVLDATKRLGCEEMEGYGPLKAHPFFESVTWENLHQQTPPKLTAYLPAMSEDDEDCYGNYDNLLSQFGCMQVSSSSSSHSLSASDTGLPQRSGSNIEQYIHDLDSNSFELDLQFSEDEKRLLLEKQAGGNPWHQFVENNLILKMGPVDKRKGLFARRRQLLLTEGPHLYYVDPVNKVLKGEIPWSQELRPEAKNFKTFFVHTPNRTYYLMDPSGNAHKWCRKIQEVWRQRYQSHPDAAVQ

Structure (SMILES)	Activity [1] [%]	Activity ([2]; filed as antagonist) [%]	Activity [3] [%]	Activity [4] [%]	Activity [5] [%]	Activity [6] [%]	Activity [7] [%]	Activity [8] [%]	Activity [9] [%]	Activity [10] [%]	Activity [11] [%]	Activity [12] [%]	Activity [13] [%]	Activity [2] [%]	Activity [14] [%]	Activity [15] [%]	Activity [16] [%]
NCCNS(=O)(=O)c1ccc(Cl)c2ccncc12	72	26	78	80	63	94	76	65	78	62	81	65	85	–	–	–	–
COc1cc(OC)c(/C=C2/C(=O)Nc3ccccc32)c(OC)c1	86	–	88	91	89	100	97	78	75	83	95	97	88	79	–	–	–
O=C(NCCCNc1nc(Nc2cccc(NC(=O)N3CCCC3)c2)ncc1I)c1cccs1	–	–	–	–	–	–	–	–	–	–	–	–	–	–	99	88	30
Cc1n[nH]c2ccc(-c3cncc(OC[C@@H](N)Cc4c[nH]c5ccccc45)c3)cc12	–	–	–	–	–	–	–	–	–	–	–	–	–	–	92	78	–
CN[C@@H]1C[C@H]2O[C@@](C)([C@@H]1OC)n1c3ccccc3c3c4c(c5c6ccccc6n2c5c31)C(=O)N[C@H]4O (stereo in doubt)	–	–	–	–	–	–	–	–	–	–	–	–	–	–	–	–	2
